Source: patent publication US12673961B2 (Agios Pharmaceuticals, Inc., priority 2022, dated 2026)

These compounds were tested against T1, human PAH with the R408W mutation (Homo sapiens, UniProt P00439, R408W) (assay: Cell Based Phenylalanine Flux Assay). Details: A375 cells expressing human R408W PAH; 24 hrs with compound, then sepiapterin and 13C9,15N-Phenylalanine for 4 hours; 13C-Tyrosine by LC-MS; average where tested multiple times; read-out: AC50.
T1 construct: expressed in transfected cells
T1 sequence (P00439 1-452 R408W): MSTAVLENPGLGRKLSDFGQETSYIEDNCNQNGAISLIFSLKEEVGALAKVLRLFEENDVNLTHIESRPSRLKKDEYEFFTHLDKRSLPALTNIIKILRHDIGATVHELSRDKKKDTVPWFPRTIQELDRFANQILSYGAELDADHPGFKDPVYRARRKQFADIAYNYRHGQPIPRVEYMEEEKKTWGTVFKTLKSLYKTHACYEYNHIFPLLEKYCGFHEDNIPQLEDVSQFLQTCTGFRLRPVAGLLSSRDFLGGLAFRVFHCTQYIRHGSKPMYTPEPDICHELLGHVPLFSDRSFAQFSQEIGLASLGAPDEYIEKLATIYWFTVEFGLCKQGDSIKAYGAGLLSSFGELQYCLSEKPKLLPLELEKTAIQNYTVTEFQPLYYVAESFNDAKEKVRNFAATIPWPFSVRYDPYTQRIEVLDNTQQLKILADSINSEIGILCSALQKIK
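Note: Ten-point dose curve from 2-fold serial dilutions, run in duplicate at 0.5% DMSO final, tracer step used 20 µM sepiapterin and 800 µM labeled phenylalanine.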

SMILES | AC50 [nM]
Cn1nccc1-c1nnc(C(=O)N2CCc3[nH]cnc3[C@@H]2c2cc3c(C(F)F)cccn3n2)o1 [Example 1533, (R)-(4-(4-(difluoromethyl)pyrazolo[1,5-a]pyridin-2-yl)-6,7-dihydro-1H-imidazo [4,5-c]pyridin-5(4H)-yl)(5-(1-methyl-1H-pyrazol-5-yl)-1,3,4-oxadiazol-2-yl)methanone] | > 5000
O=C(c1nnc(-c2cnccn2)o1)N1CCc2[nH]cnc2[C@H]1c1cc2cccc(C(F)F)n2n1 [Example 1535, (S)-(4-(7-(difluoromethyl)pyrazolo[1,5-a]pyridin-2-yl)-6,7-dihydro-1H-imidazo[4,5-c]pyridin-5(4H)-yl)(5-(pyrazin-2-yl)-1,3,4-oxadiazol-2-yl)methanone] | 500 to 1000
Cc1cc(-c2nnc(C(=O)N3CCc4[nH]cnc4[C@@H]3c3cc4cccc(C(F)F)n4n3)o2)nn1C [Example 1536, (R)-(4-(7-(difluoromethyl)pyrazolo[1,5-a]pyridin-2-yl)-6,7-dihydro-1H-imidazo[4,5-c]pyridin-5(4H)-yl)(5-(1,5-dimethyl-1H-pyrazol-3-yl)-1,3,4-oxadiazol-2-yl)methanone] | > 5000
O=C(c1nnc(-c2cnn(C(F)(F)F)c2)o1)N1CCc2[nH]cnc2[C@@H]1c1cc2c(C(F)(F)F)cccn2n1 [Example 1539, (R)-(5-(1-(trifluoromethyl)-1H-pyrazol-4-yl)-1,3,4-oxadiazol-2-yl)(4-(4-(trifluoromethyl)pyrazolo[1,5-a]pyridin-2-yl)-6,7-dihydro-1H-imidazo[4,5-c]pyridin-5(4H)-yl)methanone] | > 5000
O=C(c1nnc(-c2cnn(C(F)(F)F)c2)o1)N1CCc2[nH]cnc2[C@@H]1c1cc2c(F)cccn2n1 [Example 1541, (R)-(4-(4-fluoropyrazolo [1,5-a]pyridin-2-yl)-6,7-dihydro-1H-imidazo[4,5-c]pyridin-5(4H)-yl)(5-(1-(trifluoromethyl)-1H-pyrazol-4-yl)-1,3,4-oxadiazol-2-yl)methanone] | 1000 to 5000
O=C(c1cnn2cc(-c3ccccn3)ccc12)N1CCc2[nH]cnc2[C@H]1c1cc2c(C(F)(F)F)cccn2n1 [Example 1550, (S)-(6-(pyridin-2-yl)pyrazolo [1,5-a]pyridin-3-yl)(4-(4-(trifluoromethyl)pyrazolo [1,5-a]pyridin-2-yl)-6,7-dihydro-1H-imidazo[4,5-c]pyridin-5(4H)-yl)methanone] | < 500
Cn1cc(-c2ccc3c(C(=O)N4CCc5[nH]cnc5[C@H]4c4cc5c(C(F)(F)F)cccn5n4)cnn3c2)cn1 [Example 1552, (S)-(6-(1-methyl-1H-pyrazol-4-yl)pyrazolo[1,5-a]pyridin-3-yl)(4-(4-(trifluoromethyl)pyrazolo[1,5-a]pyridin-2-yl)-6,7-dihydro-1H-imidazo[4,5-c]pyridin-5(4H)-yl)methanone] | < 500
CC(C)c1nnc(C(=O)N2CCc3[nH]cnc3[C@@H]2c2cc3cccc(F)n3n2)o1 [Example 1554] | > 5000
O=C(c1nnc(C2CCC2)o1)N1CCc2[nH]cnc2[C@@H]1c1cc2c(F)cccn2n1 [Example 1558, (R)-(5-cyclobutyl-1,3,4-oxadiazol-2-yl)(4-(4-fluoropyrazolo[1,5-a]pyridin-2-yl)-6,7-dihydro-1H-imidazo[4,5-c]pyridin-5(4H)-yl)methanone] | 1000 to 5000
Cc1cc(-c2nnc(C(=O)N3CCc4[nH]cnc4[C@H]3c3cc4cccc(F)n4n3)o2)nn1C [Example 1565, (S)-(5-(1,5-dimethyl-1H-pyrazol-3-yl)-1,3,4-oxadiazol-2-yl)(4-(7-fluoropyrazolo[1,5-a]pyridin-2-yl)-6,7-dihydro-1H-imidazo[4,5-c]pyridin-5(4H)-yl)methanone] | < 500
Cc1cnn(C)c1-c1nnc(C(=O)N2CCc3[nH]cnc3[C@H]2c2cc3c(C(F)F)cccn3n2)o1 [Example 1568, (S)-(4-(4-(difluoromethyl)pyrazolo[1,5-a]pyridin-2-yl)-6,7-dihydro-1H-imidazo [4,5-c]pyridin-5(4H)-yl)(5-(1,4-dimethyl-1H-pyrazol-5-yl)-1,3,4-oxadiazol-2-yl)methanone] | < 500
c1ccc2oc(N3CCc4[nH]cnc4[C@H]3c3cc4ccccn4n3)nc2c1 [Example 1577, (S)-2-(4-(pyrazolo[1,5-a]pyridin-2-yl)-6,7-dihydro-1H-imidazo[4,5-c]pyridin-5(4H)-yl)benzo[d]oxazole] | 500 to 1000
O=C(c1nnc(C2CC(F)(F)C2)o1)N1CCc2[nH]cnc2[C@@H]1c1cc2c(Cl)cccn2n1 [Example 1586, (R)-(4-(4-chloropyrazolo [1,5-a]pyridin-2-yl)-6,7-dihydro-1H-imidazo [4,5-c]pyridin-5(4H)-yl)(5-(3,3-difluorocyclobutyl)-1,3,4-oxadiazol-2-yl)methanone] | 1000 to 5000
O=C(c1nnc(C2CC(F)(F)C2)o1)N1CCc2[nH]cnc2[C@H]1c1cc2c(Cl)cccn2n1 [Example 1587, (S)-(4-(4-chloropyrazolo [1,5-a]pyridin-2-yl)-6,7-dihydro-1H-imidazo[4,5-c]pyridin-5(4H)-yl)(5-(3,3-difluorocyclobutyl)-1,3,4-oxadiazol-2-yl)methanone] | < 500
FC(F)(F)c1cccn2nc([C@@H]3c4nc[nH]c4CCN3c3nnc(C4CC4)o3)cc12 [Example 1591, (S)-2-cyclopropyl-5-(4-(4-(trifluoromethyl)pyrazolo[1,5-a]pyridin-2-yl)-6,7-dihydro-1H-imidazo[4,5-c]pyridin-5(4H)-yl)-1,3,4-oxadiazole] | 500 to 1000
c1cnc(N2CCc3[nH]cnc3[C@H]2c2cc3ccccn3n2)nc1 [Example 1592, (S)-4-(pyrazolo[1,5-a]pyridin-2-yl)-5-(pyrimidin-2-yl)-4,5,6,7-tetrahydro-1H-imidazo[4,5-c]pyridine] | 500 to 1000
Clc1cccn2nc([C@H]3c4nc[nH]c4CCN3c3nnc(-c4ccccn4)o3)cc12 [Example 1622, (R)-2-(4-(4-chloropyrazolo [1,5-a]pyridin-2-yl)-6,7-dihydro-1H-imidazo[4,5-c]pyridin-5(4H)-yl)-5-(pyridin-2-yl)-1,3,4-oxadiazole] | 1000 to 5000
FC(F)c1cccc2cc([C@H]3c4nc[nH]c4CCN3c3nnc(-c4ccccn4)o3)nn12 [Example 1627, (R)-2-(4-(7-(difluoromethyl)pyrazolo[1,5-a]pyridin-2-yl)-6,7-dihydro-1H-imidazo [4,5-c]pyridin-5(4H)-yl)-5-(pyridin-2-yl)-1,3,4-oxadiazole] | > 5000
COCc1ccc2c(C(=O)N3CCc4[nH]cnc4[C@H]3c3cc4c(F)cccn4n3)cnn2c1 [Example 1628, (4-(4-fluoropyrazolo[1,5-a]pyridin-2-yl)-6,7-dihydro-1H-imidazo[4,5-c]pyridin-5(4H)-yl)(6-(methoxymethyl)pyrazolo[1,5-a]pyridin-3-yl)methanone] | 500 to 1000
Clc1cccc2cc([C@@H]3c4nc[nH]c4CCN3c3nnc(-c4ccccn4)o3)nn12 [Example 1639, (S)-2-(4-(7-chloropyrazolo [1,5-a]pyridin-2-yl)-6,7-dihydro-1H-imidazo[4,5-c]pyridin-5(4H)-yl)-5-(pyridin-2-yl)-1,3,4-oxadiazole] | 500 to 1000
Cc1cccc2cc([C@H]3c4nc[nH]c4CCN3c3nnc(-c4ccccn4)o3)nn12 [Example 1641, (R)-2-(4-(7-methylpyrazolo [1,5-a]pyridin-2-yl)-6,7-dihydro-1H-imidazo[4,5-c]pyridin-5(4H)-yl)-5-(pyridin-2-yl)-1,3,4-oxadiazole] | > 5000
COCc1ccc2c(C(=O)N3CCc4[nH]cnc4[C@H]3c3cc4c(Cl)cccn4n3)cnn2c1 [Example 1650, (S)-(4-(4-chloropyrazolo [1,5-a]pyridin-2-yl)-6,7-dihydro-1H-imidazo [4,5-c]pyridin-5(4H)-yl)(6-(methoxymethyl)pyrazolo [1,5-a]pyridin-3-yl)methanone] | 500 to 1000
Cc1ccc2c(C(=O)N3CCc4[nH]cnc4[C@H]3c3cc4c(C(F)(F)F)cccn4n3)cnn2c1 [Example 1666, (S)-(6-methylpyrazolo [1,5-a]pyridin-3-yl)(4-(4-(trifluoromethyl)pyrazolo [1,5-a]pyridin-2-yl)-6,7-dihydro-1H-imidazo[4,5-c]pyridin-5(4H)-yl)methanone] | 500 to 1000
Cc1ccc2c(C(=O)N3CCc4[nH]cnc4[C@H]3c3cc4c(C)cccn4n3)cnn2c1 [Example 1668, (S)-(4-(4-methylpyrazolo [1,5-a]pyridin-2-yl)-6,7-dihydro-1H-imidazo [4,5-c]pyridin-5(4H)-yl)(6-methylpyrazolo[1,5-a]pyridin-3-yl)methanone] | 500 to 1000
O=C(c1cnn2cc(C3CC3)ccc12)N1CCc2[nH]cnc2[C@@H]1c1cc2c(F)cccn2n1 [Example 1673, (R)-(6-cyclopropylpyrazolo [1,5-a]pyridin-3-yl)(4-(4-fluoropyrazolo[1,5-a]pyridin-2-yl)-6,7-dihydro-1H-imidazo[4,5-c]pyridin-5(4H)-yl)methanone] | > 5000
Cc1c(-c2nnc(C(=O)N3CCc4[nH]cnc4[C@H]3c3cc4c(OC(F)(F)F)cccn4n3)o2)cnn1C [Example 1684, (S)-(5-(1,5-dimethyl-1H-pyrazol-4-yl)-1,3,4-oxadiazol-2-yl)-(4-(4-(trifluoromethoxy)pyrazolo[1,5-a]pyridin-2-yl)-6,7-dihydro-1H-imidazo [4,5-c]pyridin-5(4H)-yl)methanone] | < 500
